2 molecules from patent US20250144049A1, “METHODS, COMPOSITIONS, AND USES RELATED TO THE TREATMENT AND PREVENTION OF LEIGH SYNDROME” (Stealth BioTherapeutics Inc., priority 2023, published 2025) can be followed below.

Series [1] is described as follows: Pharmacokinetics of Compound 3 and Compound 4 after five daily subcutaneous doses, plasma, heart, brain. The series is classed as in vivo, C57BL/6 mice. The following applies: for tolerability: dose levels up to 60 mg/kg, SC injection, 5 daily doses. The procedure:
• Animals: Male/C57Bl/6 mice/-18-25 grams were received from an approved vendor. • Fasting was not required for this study. • Body weights were recorded prior to dose administration. The volume of each dose delivered (mL/kg) was based on each individual animal's body weight. • This was a multiple dose terminal study dosed once per day over 5 days. Mice were taken down following their 5th and final dose. • Doses were administered in accordance with test facility standard operating procedures. […] Any abnormalities were recorded. • Pre-formulated Compound 3 and Compound 4 were provided by Study sponsor ready to be dosed for each day in accordance with the Study Design set forth in Table 1, below.
b) Sample collection—Post Dosing: • Terminal blood samples were collected via cardiac puncture following inhalation of anesthesia in accordance with test facility standard operating procedures. • Blood samples were collected into tubes with appropriate anticoagulant. The tubes were stored on wet ice until processed to plasma by centrifugation (3500 rpm at 5° C. for 10 minutes) within 20 minutes of collection. Sample aliquots of 100 μL were transferred into individual uniquely labeled matrix tubes and stored at nominal −80° C. until transferred to analytical chemistry for analysis by LC/MS/MS. • Immediately following each terminal blood collection for all groups, animals were sacrificed and perfused with cold PBS. The following tissues were collected: heart and brain in accordance with Table 2. • Plasma and tissue samples were processed for analysis by LC/MS/MS to determine the amounts/concentrations reported in the FIGS. 18-21.

The subject of series [2] is Healthy (GM08402) fibroblasts. Briefly: RSL3 cytoprotection assay, healthy fibroblasts. The class given is cell-based, human. The following applies: 1 μM RSL3, 4 hours, FIG. 8. The procedure: (§1) Patient fibroblasts were acquired from Coriell Institute for Medical Research (Camden, NJ, USA). GM03672 is an untransformed fibroblast cell line from a Leigh syndrome patient carrying an unknown mutation. GM08402 is an untransformed fibroblast from an apparently healthy individual. Cells were cultured at 37° C. at 5% CO2 in Eagle's Minimum Essential Medium (MEM, Corning), which was supplemented with Earle's salts and non-essential amino acids, 15% qualified fetal bovine serum, and 1% penicillin/streptomycin ([…]) to yield “Complete MEM.”
(§2) To initiate the RSL3 cytoprotection experiment, Healthy (GM08402) and Leigh syndrome (GM03672) fibroblasts were resuspended in Complete MEM. Cells were seeded at 10,000 cells per well in a clear, tissue cultured-treated, 96-well plate and incubated at 37° C. overnight. Following the incubation, supernatant was manually aspirated, taking care not to disrupt cells. […]. Luminescence units were quantified by GEN5 software on a BioTek SYNERGY neo2 plate reader (LUM filter).
(§3) RSL3 is an inhibitor of the enzyme glutathione peroxidase 4 (GPX4), which decreases lipid peroxides. RSL3 inhibition of GPX4 induces ferroptosis through iron-dependent accumulation of lipid ROS. In this assay, Healthy or Leigh fibroblasts were treated for 4 hours with RSL3 to induce ferroptosis or left untreated. Endogenous ATP levels were measured as an indicator of cellular viability using a commercially available kit (CellTiter-Glo® 2.0 Cell Viability Assay (Promega)).
(§4) […]. […] Briefly, ferroptosis was induced with 1 μM RSL3 in healthy fibroblast cells and 375 nM RSL3 in fibroblasts from a patient with Leigh syndrome.
(§5) A preliminary experiment was performed to determine the effect of RSL3 injury on the fibroblasts of a healthy individual (cell line: GM08402) and the fibroblasts of a patient diagnosed with Leigh syndrome (cell line: GM03672).

Series [3] deals with Leigh fibroblasts (GM03672). The series is described as follows: Mitochondrial membrane potential (TMRM flow cytometry) in RSL3-treated Leigh fibroblasts. The series is classed as cell-based, human. The following applies: 1 μM RSL3 with 1 μM compound, 4 hours. The procedure: Leigh fibroblasts (GM03672) were seeded in a 24-well, tissue culture-treated plate in complete MEM (MEM+15% FBS+1% penicillin/streptomycin) at a density of 1×10^5 cells per 500 μL and incubated overnight at 37° C. at 5% CO2. Cells were treated for 4 hours at 37° C. with either 1 μM RSL3, 1 μM RSL3 with 1 μM Compound 3 or media for untreated cells. Following the incubation, supernatant was removed and cells were treated with 0.25% trypsin for 5 min at 37° C. Trypsin was neutralized with an equal part MEM. Cells were dislodged with gentle pipetting and pelleted at 300×g for 5 minutes. Pellets were resuspended in 500 μL Fluobrite DMEM and cells were transferred to a 96-well, v-bottom plate. Cells were stained with 20 nM MitoTracker Green and 100 nM tetramethylrhodamine methyl ester (TMRM) Samples were incubated for 25 minutes at 37° C. Each well was mixed immediately prior to analysis to resuspend settled cells. Fluorescence intensity was measured on the BD Accuri C6 Plus Flow Cytometer. A minimum of 10,000 events per sample was collected. Data analysis was performed using FloJo vs. 10. Gating was performed by establishing an initial forward scatter vs. side scatter gate. […] Median fluorescence intensity (MFI) of TMRM fluorescence was determined. Using GraphPad Prism 10, statistical significance between groups was determined by One-way ANOVA. […]
On the technique in general: In flow cytometry, cells or beads pass a laser one at a time.

The subject of series [4] is Leigh syndrome (GM03672) fibroblasts. Briefly: RSL3 cytoprotection assay, Leigh fibroblasts. The series is classed as cell-based, human. As to conditions: RSL3, 4 hours, FIG. 9. The procedure: as §1, §2, §3, §4, §5

For the molecule `CC1=C(C)C(=O)C(CC[C@@](C)(O)COCCC[Si](C)(C)C)=C(C)C1=O` [Compound 3], the “plasma exposure versus dose” value in series [1] (mouse, 20 mg/kg and 60 mg/kg SC) is “roughly proportional to dose”. Also, the “heart exposure based on AUC, Compound 3 versus Compound 4” value in series [1] (mouse, SC) is listed as “slightly higher”. Moreover, the “exposure (Cmax and AUC) heart versus brain” value in series [1] (mouse, SC, after 5th dose) is given as “higher in heart than in brain”. Moreover, the tolerability entry in series [1] (mouse) is recorded as “well tolerated”. Moreover, the “concentration in heart tissue” value in series [1] (mouse, up to 2 hours post administration after 5 days, Compound 3 20 and 60 mg/kg, Compound 4 60 mg/kg SC, FIG. 18) is reported as “up to microgram quantities of drug per gram of heart tissue”. The “concentration in brain tissue” value in series [1] (mouse, up to 2 hours post administration after 5 days, Compound 3 20 and 60 mg/kg, Compound 4 60 mg/kg SC, FIG. 19) was “up to microgram quantities of drug per gram of brain tissue”. The “anti-ferroptosis properties compared among test articles” value in series [2] is “superior to Compounds 1, 4 and Vatiquinone”; in series [4], “superior to Compounds 1, 4 and Vatiquinone”. In series [3], the “protection from loss of mitochondrial membrane potential (TMRM MFI)” value is listed as “protective”.

For the molecule `CC1=C(C)C(=O)C(CC[C@](C)(O)CCCCCCCCC(F)(F)F)=C(C)C1=O` [Compound 4], in series [1] (male, C57BL/6, mouse, in vivo, sc), the “brain exposure based on AUC, Compound 4 versus Compound 3” value is “somewhat higher than Compound 3”. In addition, in series [1] (mouse), the tolerability result is recorded as “well tolerated”. Further, in series [1] (mouse, in vivo, sc), the “Tmax, Compound 4 versus Compound 3” value is “typically later”; the “exposure (Cmax and AUC) heart versus brain” value is recorded as “no difference”; the “half-life, Compound 4 versus Compound 3” value is reported as “tended to be longer”. Also, in series [2], the “anti-ferroptosis properties compared among test articles” value is recorded as “roughly equivalent”. In series [3], the “protection from loss of mitochondrial membrane potential (TMRM MFI)” value is reported as “protective”. The “anti-ferroptosis properties compared among test articles” value in series [4] is on record as “roughly equivalent”.
